Measured values taken from paper PMC11870044, “Exploring the Antibacterial and Antiparasitic Activity of Phenylaminonaphthoquinones—Green Synthesis, Biological Evaluation and Computational Study” (International Journal of Molecular Sciences, 2024).
In brackets after ≈: the same amount, converted by molar mass. Like-named read-outs stand apart in the source and are kept apart here.

Tests used:
[1] = tested on: Salmonella typhimurium (ATCC 19585); test: Minimum inhibitory concentration, broth dilution method; format: cell-based; details: Salmonella enterica, read-out: MIC S. typhimurium G−
Protocol: (§1) The microorganisms used were Staphylococcus aureus (ATCC 25923), Proteus mirabilis (ATCC 12453) Enterococcus faecalis (ATCC 29212), Escherichia coli (ATCC 25922), Salmonella typhimurium (ATCC 19585), and Klebsiella pneumoniae (ATCC 700603).
(§2) The antimicrobial activity of the phenylaminonaphthoquinones 1–12 was determined by the broth dilution method. The following concentrations were tested: 200, 100, 50, 25, and 12.5 μg/mL. After incubation, the microbial growth was examined. The results are expressed in minimum inhibitory concentration (MIC), the lowest concentration of phenylaminonaphthoquinones with no visible growth. The bactericidal/bacteriostatic activity was determined by sub-cultivation of the samples in normal culture media at appropriate temperatures and incubation times. The MIC of each compound was performed in triplicate. The compounds 1–12 were dissolved in DMSO. Cefazolin and cefotaxime were used as positive controls at the same compound concentrations.

[2] = tested on: Enterococcus faecalis (ATCC 29212); test: as above; format: cell-based
Protocol: as §1, §2

[3] = tested on: Staphylococcus aureus (ATCC 25923); test: as above; format: cell-based; details: for MIC: Staphylococcus aureus; for MIC S. aureus G+: broth dilution
Protocol: as §1, §2

[4] = tested on: Proteus mirabilis (ATCC 12453); test: as above; format: cell-based
Protocol: as §1, §2

[5] = tested on: Escherichia coli (ATCC 25922); test: as above; format: cell-based
Protocol: as §1, §2

[6] = tested on: Klebsiella pneumoniae (ATCC 700603); test: as above; format: cell-based
Protocol: as §1, §2

[7] = tested on: Plasmodium falciparum FCR-3 (chloroquine-resistant); test: In vitro antiplasmodial screening, parasitemia by flow cytometry; format: cell-based; design: Plasmodium falciparum FCR-3 Growth Inhibition (%): concentration or dose not given beside the values; details: for IC50: Plasmodium falciparum, read-out: Plasmodium falciparum FCR-3 IC50; for Plasmodium falciparum FCR-3 Growth Inhibition (%): mean ± SD
Protocol: (§3) The antimalarial activity assay was performed using Plasmodium falciparum 3D7 (chloroquine-sensitive) and FCR-3 (chloroquine-resistant) reference strains, which were cultured in vitro following the method described by Trager et al. with some modifications.
(§4) The experiments were performed in 96-well culture plates, where the stock solutions of compounds 1–12 (1, 0.1, 0.01, and 0.001 µg/mL) were tested. A total of 100 µL of each product was distributed in triplicate on the culture plates, and 100 µL of a red blood cell suspension (4% hematocrit, final parasitemia of 1% ring stage) was added, resulting in a final volume of 200 µL. The test plates were incubated at 37 °C for 48 h, and parasitemia was determined by flow cytometry (BDFACScalibur). Erythrocytes were taken from each well culture plate, and 100 µL of ethidium bromide (10 µg/mL) was added and incubated for 30 min. A total of 100,000 cells per well culture plate were acquired and analyzed. The IC50 of the pure products was determined by a regression curve of the percentage inhibition of parasite activity as a function of the logarithmic dose. Chloroquine diphosphate was used as the reference drug.

[8] = tested on: Plasmodium falciparum 3D7 (chloroquine-sensitive); test: as above; format: cell-based; design: Plasmodium falciparum 3D7 Growth Inhibition (%): concentration or dose not given beside the values; details: for Plasmodium falciparum 3D7 Growth Inhibition (%): mean ± SD; for IC50: Plasmodium falciparum
Protocol: as §3, §4

[9] = Experimental log P, shake-flask method n-octanol/water; format: physicochemical; details: 25 ± 1 °C
Protocol: The mixture was then allowed to stand for 24 h at the same temperature for further phase separation. A stock solution with a concentration of 0.01 mol per liter in water, pre-saturated with n-octanol, was prepared for each compound. Duplicate test vessels containing a mixture of the stock solution and n-octanol (pre-saturated with water) were shaken on a vortex shaker for 5 min. Phase separation was achieved by centrifugation of the vessels for 3 min at 4000× g (25 ± 1 °C), and the concentration of the solute in the water phase (C water) was measured from their absorbance at 205 nm using a UV spectrophotometer. The partition coefficient was calculated using the following equation. Log Po/w = Log(C n-octanol/C water)
All the measurements were carried out at room temperature (25 ± 1 °C). In order to check the performance of the method, aniline was used as a reference substance.

P. falciparum 3D7 = tested on: P. falciparum 3D7; design: method as in PMID 33333397; details: literature compounds of Figure 2; read-out: IC50 against the 3D7 strain; cited from earlier work
[10] = ATCC29212, broth dilution, triplicate, read-out: MIC E. faecalis G+
[11] = ATCC25923, broth dilution, triplicate, read-out: MIC S. aureus G+
[12] = ATCC12453, broth dilution, triplicate, read-out: MIC P. mirabilis G+
[13] = ATCC25922, broth dilution, triplicate, read-out: MIC E. coli G−
[14] = ATCC700603, broth dilution, triplicate, read-out: MIC K. pneumonia G−
[15] = 3D7 chloroquine-sensitive, 48 h
[16] = FCR-3 chloroquine-resistant, 48 h
[17] = FCR3, FCR-3 chloroquine-resistant, 48 h
[18] = 3D7 chloroquine-sensitive, 48 h, read-out: Plasmodium falciparum 3D7 IC50
[19] = ATCC29212, read-out: MIC E. faecalis G+
[20] = ATCC25923, read-out: MIC S. aureus G+, broth dilution, triplicate
[21] = ATCC12453, read-out: MIC P. mirabilis G+
[22] = ATCC25922, read-out: MIC E. coli G−
[23] = ATCC700603, read-out: MIC K. pneumonia G−
[24] = 3D7, 48 h, read-out: Plasmodium falciparum 3D7 IC50

MIC ([1]; broth dilution, triplicate) [µg/mL]	MIC [2, 10] [µg/mL]	MIC [3, 11] [µg/mL]	MIC [4, 12] [µg/mL]	MIC [5, 13] [µg/mL]	MIC [6, 14] [µg/mL]	logP [9]	IC50 [7, 17] [µg/mL]	IC50 [8, 18] [µg/mL]	Structure (SMILES)	Plasmodium falciparum FCR-3 Growth Inhibition (%) [7, 16] [%]	MIC S. aureus G+ ([3]; triplicate) [µg/mL]	Plasmodium falciparum 3D7 Growth Inhibition (%) [8, 15] [%]	other results
7.1 (≈ 15.6 µM)	8.4 (≈ 18.5 µM)	4.2 (≈ 9.24 µM)	5.6 (≈ 12.3 µM)	> 50	8.5 (≈ 18.7 µM)	–	–	–	Cc1nnc(SCC2=C(C(=O)O)N3C(=O)[C@@H](NC(=O)Cn4cnnn4)[C@H]3SC2)s1 [CFZ, cefazolin, reference compound]	–	–	–	–
–	–	–	–	–	–	–	–	–	CCN(CC)CCCC(C)Nc1ccnc2cc(Cl)ccc12 (stereo not drawn) [CQ, chloroquine, reference compound]	–	–	–	IC50 ([7]; FCR3, 48 h): 0.33 µg/mL (≈ 1.03 µM); Plasmodium falciparum 3D7 IC50 [8, 15]: 0.06 µg/mL
8.2 (≈ 18 µM)	10.9 (≈ 23.9 µM)	8.9 (≈ 19.5 µM)	8.9 (≈ 19.5 µM)	> 50	8.4 (≈ 18.4 µM)	–	–	–	CO/N=C(\C(=O)N[C@@H]1C(=O)N2C(C(=O)O)=C(COC(C)=O)CS[C@H]12)c1csc(N)n1 [CTX, cefotaxime, reference compound]	–	–	–	–
38.8 (≈ 156 µM)	49.9 (≈ 200 µM)	3.2 to 5.7 (≈ 12.8 to 22.9 µM)	40 (≈ 160 µM)	26.3 (≈ 106 µM)	> 50	1.42 ± 0.21	0.74 (≈ 2.97 µM)	0.16	O=C1C=C(Nc2ccccc2)C(=O)c2ccccc21 [Compound 1, 2-phenylamino-1,4-naphthoquinone]	65.0 ± 1.0	3.9 (≈ 15.6 µM)	58.0 ± 3.0	–
–	–	–	–	–	–	–	–	–	NC1=CC(=O)c2ccccc2C1=O [Compound 2-amino]	–	–	–	IC50 (P. falciparum 3D7): 5140 nM
> 50	> 50	36.5 (≈ 129 µM)	39.9 (≈ 141 µM)	> 50	> 50	1.61 ± 0.11	> 1	> 1	O=C1C(Cl)=C(Nc2ccccc2)C(=O)c2ccccc21 [Compound 2]	13.0 ± 2.0	–	37.0 ± 1.0	–
32.5 (≈ 109 µM)	37.1 (≈ 125 µM)	> 50	40.9 (≈ 137 µM)	> 50	44.6 (≈ 150 µM)	2.2 ± 0.13	0.86 (≈ 2.89 µM)	> 1	Cc1ccccc1NC1=C(Cl)C(=O)c2ccccc2C1=O [Compound 4]	56.0 ± 1.0	–	42.0 ± 2.0	–
49.9 (≈ 159 µM)	40.1 (≈ 128 µM)	21.9 (≈ 69.8 µM)	52.6 (≈ 168 µM)	> 50	49.1 (≈ 156 µM)	1.81 ± 1.04	> 1	> 1	COc1ccc(NC2=C(Cl)C(=O)c3ccccc3C2=O)cc1 [Compound 8]	34.0 ± 2.0	–	26.0 ± 2.0	–
43.8 (≈ 142 µM)	38.2 (≈ 123 µM)	> 50	29.9 (≈ 96.7 µM)	> 50	> 50	1.6 ± 0.23	> 1	> 1	COc1ccc(OC)c(NC2=CC(=O)c3ccccc3C2=O)c1 [Compound 9]	24.0 ± 2.0	–	33.0 ± 1.0	–
31.7 (≈ 92.2 µM)	70.8 (≈ 206 µM)	3.2 to 5.7 (≈ 9.31 to 16.6 µM)	> 50	23.5 (≈ 68.4 µM)	> 50	1.94 ± 0.56	> 1	> 1	COc1ccc(OC)c(NC2=C(Cl)C(=O)c3ccccc3C2=O)c1 [Compound 10]	21.0 ± 4.0	4.7 (≈ 13.7 µM)	20.0 ± 3.0	–
> 50	30.2 (≈ 115 µM)	3.2 to 5.7 (≈ 12.2 to 21.6 µM)	44 (≈ 167 µM)	> 50	> 50	2.31 ± 0.3	0.55 (≈ 2.09 µM)	> 1	CN(C1=CC(=O)c2ccccc2C1=O)c1ccccc1 [Compound 11]	72.0 ± 2.0	5.5 (≈ 20.9 µM)	26.0 ± 8.0	–

Structure (SMILES)	MIC ([1]; broth dilution, triplicate) [µg/mL]	MIC [2, 10] [µg/mL]	MIC [3, 11] [µg/mL]	MIC [4, 12] [µg/mL]	MIC [5, 13] [µg/mL]	MIC [6, 14] [µg/mL]	logP [9]	IC50 [7, 17] [µg/mL]	IC50 [8, 18] [µg/mL]	Plasmodium falciparum FCR-3 Growth Inhibition (%) [7, 16] [%]	MIC S. aureus G+ ([3]; triplicate) [µg/mL]	Plasmodium falciparum 3D7 Growth Inhibition (%) [8, 15] [%]	other results
Cc1ccccc1NC1=CC(=O)c2ccccc2C1=O [Compound 3]	13.2 (≈ 50.1 µM)	50 (≈ 190 µM)	3.2 to 5.7 (≈ 12.2 to 21.6 µM)	19.9 (≈ 75.6 µM)	25.5 (≈ 96.8 µM)	26.3 (≈ 99.9 µM)	1.89 ± 1.12	0.12 (≈ 0.456 µM)	0.0049	97.0 ± 0.2	3.8 (≈ 14.4 µM)	98.0 ± 1.0	Enhancement of antiplasmodial activity versus literature 2-amino/2-phenylaminonaphthoquinones ([8]; 3D7 strain, equimolar comparison): more than 250 fold; Potency relative to chloroquine against 3D7 strain ([8]; IC50 0.0049 vs 0.06 μg/mL): more than 10 fold; IC50 ([8]; 3D7, read-out: IC50 against 3D7 strain at equimolar concentrations): 18.6 nM
O=C1C=C(Nc2ccc(O)cc2)C(=O)c2ccccc21 [Compound 5]	–	–	–	–	–	–	1.17 ± 0.81	–	–	61.0 ± 2.0	3.2 (≈ 12.1 µM)	18.0 ± 1.0	IC50 ([7]; FCR3, 48 h): 0.78 µg/mL (≈ 2.94 µM); MIC [1]: > 50 µg/mL; MIC [2, 19]: > 50 µg/mL; MIC [3, 20]: 3.2 to 5.7 µg/mL (≈ 12.1 to 21.5 µM); MIC [4, 21]: 24.8 µg/mL (≈ 93.5 µM); MIC [5, 22]: > 50 µg/mL; MIC [6, 23]: > 50 µg/mL; IC50 [8, 24]: > 1 µg/mL
O=C1C(Cl)=C(Nc2ccc(O)cc2)C(=O)c2ccccc21 [Compound 6]	20 (≈ 66.7 µM)	49.9 (≈ 166 µM)	19.6 (≈ 65.4 µM)	29.9 (≈ 99.8 µM)	39.8 (≈ 133 µM)	40 (≈ 133 µM)	1.22 ± 0.13	0.87 (≈ 2.9 µM)	> 1	56.0 ± 3.0	–	41.0 ± 2.0	–
COc1ccc(NC2=CC(=O)c3ccccc3C2=O)cc1 [Compound 7]	–	–	–	–	–	–	1.39 ± 0.15	–	–	57.0 ± 1.0	5.7 (≈ 20.4 µM)	49.0 ± 2.0	IC50 ([7]; FCR3, 48 h): 0.88 µg/mL (≈ 3.15 µM); MIC [1]: 29.9 µg/mL (≈ 107 µM); MIC [2, 19]: 31.2 µg/mL (≈ 112 µM); MIC [3, 20]: 3.2 to 5.7 µg/mL (≈ 11.5 to 20.4 µM); MIC [4, 21]: 18.4 µg/mL (≈ 65.9 µM); MIC [5, 22]: > 50 µg/mL; MIC [6, 23]: 37.3 µg/mL (≈ 134 µM); IC50 [8, 24]: > 1 µg/mL
CN(C1=C(Cl)C(=O)c2ccccc2C1=O)c1ccccc1 [Compound 12]	50 (≈ 168 µM)	47.2 (≈ 159 µM)	29 (≈ 97.4 µM)	11.5 (≈ 38.6 µM)	28.6 (≈ 96.1 µM)	> 50	2.33 ± 0.02	> 1	0.8	25.0 ± 5.0	–	62.0 ± 5.0	–
